Values after ≈ are worked out from the molar mass of the structure shown.
Experiments:
[1] = system: Klebsiella pneumoniae (CRE, ATCC BAA-1705); assay: Cell killing of CRE with compounds in presence or absence of PMB (CFU/mL); assay type: cell-based; conditions: for PMB + Comp: PMB @ 0.2 μg/mL + Comp @ 20 µM; for Comp @ 20 µM: compound alone
Description: Klebsiella pneumoniae (CRE, ATCC BAA-1705) was grown in TSB overnight at 37° C. and diluted to about 5×10^5 CFU/mL using a McFarland Latex Turbidity standard (0.5). One mL of the cell suspension was transferred to a glass culture test tube. PMB was added to the cell suspension resulting in a final concentration of 200 μg/mL of PMB. The cell suspension was incubated at 37° C. on a rotary shaking incubator at 150 rpm for 4 hours. Compounds 1, 7, 8, 9, 10, and 11 were added to the cell suspension, resulting in a concentration of 20 μM for each of the compounds. The cell suspensions containing the compounds were incubated at 37° C. on a rotary shaking incubator at 150 rpm for 4 hours. Each sample was diluted tenfold to a 10^−5 dilution. Ten 10 microliters of each dilution from each sample was dripped onto a TSA plate and allowed to streak down the plate. The agar plates were incubated at 37° C. for 18-24 hours. Colony counts were performed and CFU/mL values were calculated.
The MICs of PMB and compounds 7-11 were determined against Klebsiella pneumoniae (CRE, ATCC BAA-1705). […] After the incubation with PMB, each of the compounds was added at a concentration of 20 μM, and the samples were incubated for an additional 18 hours. A sample was taken and diluted ten-fold in media. Ten microliters of each dilution was then drip-streaked onto an agar plate and incubated overnight at 37° C. Colony counts were then performed and the concentrations of cells (CFU/mL) were calculated.

[2] = system: S. aureus (ATCC 29213); assay: microbe, parasite or virus in culture; assay type: cell-based
Description: Each mixture was incubated at 37° C. on a rotary shaking incubator for about 16 hours. MTT was then added to assess the viability of the cells (at 10% well volume). […] The cells were then streaked onto a TSA plate and incubated overnight at 37° C. These steps were repeated to reach a total of 30 exposures.

[3] = system: MRSA (ATCC BAA-44); assay: Synergy with oxacillin and norfloxacin and other antibiotics (colony counts); assay type: cell-based, S. aureus; conditions: for MICs greater than cells treated with compound alone, with norfloxacin / MICs greater than cells treated with compound alone, with oxacillin: FIGS. 35-38; for Orders of Magnitude with Norfloxacin / Orders of Magnitude with Oxacillin: increase in ability to kill MRSA versus drug or compound alone
Description: The synergy of compounds 1 and 7-11 with oxacillin and norfloxacin was tested against MRSA (ATCC BAA-44). An overnight culture of MRSA was first diluted to about 5×10^5 CFU/mL in TSB. Then, 1 mL of the diluted broth suspension was added to a borosilicate glass culture tube. An appropriate volume of a compound or an antibiotic drug stock was added to the broth suspension and mixed using a vortex mixer. Then an appropriate volume of an antibiotic was added to test synergy with compounds 7-11. The samples were subsequently mixed using a vortex mixer, and the samples were incubated for 18 hours at 37° C. on a rotary shaking incubator. After 18 hours, the test cultures were diluted ten-fold, 10 μL of each dilution was drip-streaked onto a TSA plate, and the samples were incubated for 18 hours at 37° C. Colony counts were then performed and the CFU/mL values were calculated.
TABLE 21 details the MIC values identified in the MRSA assay of compounds 1, 7, 8, 9, 10, 11, various antibiotics, and light.

[4] = system: P. aeruginosa; assay: Resensitization to antibiotics (log reduction, TABLE 29); assay type: cell-based; conditions: compound 20 μM; PME (0.1 μg/mL)
[5] = system: drug-resistant bacteria; assay: Summary of synergistic activities with antibiotic families (TABLE 45); assay type: cell-based; conditions: for Synergy with Oxacillin (β-lactama): *indicated ampicillin, dicloxicillin and Penicillin G
Source text: TABLE 45 summarizes the synergistic activities of the seven classes of clinically used antibiotics and compounds of the invention against a variety of different drug-resistant bacteria.

[6] = system: HeLa cells; assay: Toxicity (IC50) on HeLa cells; assay type: cell-based, human; conditions: for IC50: Homo sapiens, cancerous cervical epithelium HeLa cells
Description: (§1) The toxicities of the compounds of the invention were determined for human cancerous cervical epithelium HeLa and normal lung fibroblast WI38 cells. The toxicities of EPIs INF-55 and INF-55Cl were quantified as controls. […] TABLE 2 compares the toxicity of compounds 7-11 on HeLa cells and normal WI38 cells.

[7] = system: S. aureus (ATCC 29213); assay: MIC against drug sensitive S. aureus; assay type: cell-based; conditions: Staphylococcus aureus, ATCC29213; ATCC 29213; read-out: S. aureus MIC
[8] = system: VRE; assay: Resensitization to antibiotics (log reduction, TABLE 29); assay type: cell-based, Enterococcus faecalis
[9] = system: WI38 cells; assay: Toxicity (IC50) on WI38 cells; assay type: cell-based; conditions: Homo sapiens, WI-38; normal lung fibroblast WI38 cells
Description: as §1

[10] = system: Klebsiella pneumoniae (CRE, ATCC BAA-1705); assay: MIC against CRE; assay type: cell-based; conditions: Klebsiella pneumoniae, ATCCBAA1705
Description: TABLE 27 details the individual MIC values of compounds 1, 7, 8, 9, 10, 11, PMB, PME, and light against CRE.
The MICs of PME and compounds 8-11 were determined against Klebsiella pneumoniae (CRE, ATCC BAA-1705). […] After the incubation with PME, the compounds were added at a concentration of 20 μM, and the samples were further incubated. At specific time points, the samples were taken and diluted ten-fold in media. Ten microliters of each dilution was then drip-streaked onto an agar plate and incubated overnight at 37° C. Colony counts were then performed and the CFU/mL were calculated.

[11] = system: MRSA; assay: Resensitization to antibiotics (log reduction, TABLE 29); assay type: cell-based, S. aureus; conditions: compound 1 μM; Oxacillin (100 μg/mL)
Description: In a 96-well microtiter plate, two-fold dilutions were made of each drug (starting with 100 μM) in 100 μL of a cell suspension in TSB. The resulting samples were incubated overnight at 37° C. on a rotary shaking incubator at 100 rpm. The samples were then visually inspected for turbidity. A 20% well volume of MTT reagent (5 mg/mL) was subsequently added, and the samples were incubated for about 20 minutes.

[12] = (⅓) MIC compound + (¼) MIC Norfloxacin
[13] = (⅓) MIC compound + (½) MIC Oxacillin
[14] = (⅛) MIC compound + (1/16) MIC Norfloxacin
[15] = (⅛) MIC compound + (⅛) MIC Oxacillin
[16] = compared to compound alone, FIGS. 34, 39, 41

For `Brc1ccc(/N=N/c2c[nH]c3ccccc23)cc1` [Compound 8], the “PMB + Comp” value [1] was “None Detected”, the “Comp @ 20 µM” value [1] was 6.6 × 10^8 CFU/mL and the “Resistance Evolved” value [2] was “No”. For the same compound, the “% Kill” value [3, 12] was 99%, the “Surviving MRSA” value [3, 12] was 1.00 × 10^−2 and the “% Kill” value [3, 13] was 99.9%. For the same compound, the “Surviving MRSA” value [3, 13] was 1.00 × 10^−3, the “MICs greater than cells treated with compound alone, with norfloxacin” value [3] was “two-fold” and the “MICs greater than cells treated with compound alone, with oxacillin” value [3] was “three-fold”. For the same compound, the “Orders of Magnitude with Norfloxacin” value [3] was over 2, the “Orders of Magnitude with Oxacillin” value [3] was over 3 and the “Log Reduction” value [4] was 4. The “Synergy with Polymyxin B (Polypeptides)” value ([5]; A. baumannii ATCC 15151) was “Synergy”, the “Synergy with Polymyxin E (Polypeptides)” value ([5]; A. baumannii ATCC 15151) was “Synergy” and the “Synergy with Polymyxin B (Polypeptides)” value ([5]; CRE ATCC 1705) was “Synergy”. The “Synergy with Polymyxin E (Polypeptides)” value ([5]; CRE ATCC 1705) was “Synergy”, the “Synergy with Polymyxin B (Polypeptides)” value ([5]; CRE ATCC 2340) was “Synergy” and the “Synergy with Polymyxin E (Polypeptides)” value ([5]; CRE ATCC 2340) was “Synergy”. For the same compound, the “Synergy with Polymyxin B (Polypeptides)” value ([5]; CRE ATCC 2341) was “Synergy”, the “Synergy with Polymyxin E (Polypeptides)” value ([5]; CRE ATCC 2341) was “Synergy” and the “Synergy with Polymyxin B (Polypeptides)” value ([5]; CRE ATCC 2342) was “Synergy”. For the same compound, the “Synergy with Polymyxin E (Polypeptides)” value ([5]; CRE ATCC 2342) was “Synergy”, the “Synergy with Norfioxacin (Fluoroquinolones)” value (“Synergy with Norfioxacin” below) ([5]; MRSA ATCC BAA-44) was “Synergy” and the “Synergy with Oxacillin (β-lactama)” value ([5]; MRSA ATCC BAA-44) was “Synergy*”. For the same compound, the “Synergy with Polymyxin B (Polypeptides)” value ([5]; P. aeruginosa ATCC 27853) was “Synergy”, the “Synergy with Polymyxin E (Polypeptides)” value ([5]; P. aeruginosa ATCC 27853) was “Synergy” and the “Synergy with Norfioxacin” value ([5]; VRE ATCC 51299) was “Synergy”. For the same compound, the “Synergy with Tetracycline (Tetracyclines)” value ([5]; VRE ATCC 51299) was “Synergy”, the “Synergy with Vancomycin (Glycopeptides)” value ([5]; VRE ATCC 51299) was “Synergy” and the IC50 [6] was 31.6 µM. For the same compound, the MIC [7] was 8 µM (≈ 2.4 µg/mL), the “Log Reduction” value ([8]; compound 7.5 μM, Tetracycline (1.5 μg/mL)) was 3-4 and the “Log Reduction” value ([8]; compound 7.5 μM, Vancomycin (3.5 μg/mL)) was 3. For the same compound, the IC50 [9] was 11.7 µM and the MIC [10] was over 100 µM.
In the case of `Clc1ccc(Oc2c(-c3ccc(Cl)cc3)[nH]c3ccccc23)cc1` [Compound 10], the “PMB + Comp” value [1] is reported as “None Detected”, the “Comp @ 20 µM” value [1] is reported as 7.9 × 10^8 CFU/mL and the “Resistance Evolved” value [2] is reported as “No”. The MIC ([2]; Staphylococcus aureus, ATCC29213, read-out: Final MIC Apr. 16, 2015) was 16 to 32 µM (≈ 5.67 to 11.3 µg/mL), the “% Kill” value [3, 14] was 99.99% and the “Surviving MRSA” value [3, 14] was 1.00 × 10^−8. The “% Kill” value [3, 15] was 99.99%, the “Surviving MRSA” value [3, 15] was 1.00 × 10^−8 and the “MICs greater than cells treated with compound alone, with norfloxacin” value [3] was “eight-fold”. For the same compound, the “MICs greater than cells treated with compound alone, with oxacillin” value [3] was “eight-fold”, the “Synergy with Norfloxacin” value ([3]; TABLE 6) was 5-log reduction and the “Synergy with Oxacillin” value ([3]; TABLE 6) was 4-log reduction. For the same compound, the “log reduction in the number of surviving cells (CFU/mL), co-treatment with norfloxacin” value [3, 16] was about 5 log, the “log reduction in the number of surviving cells (CFU/mL), co-treatment with oxacillin” value [3, 16] was about 4 log and the “Orders of Magnitude with Norfloxacin” value [3] was 8. For the same compound, the “Orders of Magnitude with Oxacillin” value [3] was 8, the “Log Reduction” value [4] was 2 and the “Log Reduction” value [11] was 4-5. For the same compound, the “Synergy with Polymyxin B (Polypeptides)” value ([5]; A. baumannii ATCC 15151) was “Synergy”, the “Synergy with Polymyxin E (Polypeptides)” value ([5]; A. baumannii ATCC 15151) was “Synergy” and the “Synergy with Polymyxin B (Polypeptides)” value ([5]; CRE ATCC 1705) was “Synergy”. The “Synergy with Polymyxin E (Polypeptides)” value ([5]; CRE ATCC 1705) was “Synergy”, the “Synergy with Polymyxin B (Polypeptides)” value ([5]; CRE ATCC 2340) was “Synergy” and the “Synergy with Polymyxin E (Polypeptides)” value ([5]; CRE ATCC 2340) was “Synergy”. The “Synergy with Polymyxin B (Polypeptides)” value ([5]; CRE ATCC 2341) was “Synergy”, the “Synergy with Polymyxin E (Polypeptides)” value ([5]; CRE ATCC 2341) was “Synergy” and the “Synergy with Polymyxin B (Polypeptides)” value ([5]; CRE ATCC 2342) was “Synergy”. For the same compound, the “Synergy with Polymyxin E (Polypeptides)” value ([5]; CRE ATCC 2342) was “Synergy”, the “Synergy with Norfioxacin” value ([5]; MRSA ATCC BAA-44) was “Synergy” and the “Synergy with Oxacillin (β-lactama)” value ([5]; MRSA ATCC BAA-44) was “Synergy*”. For the same compound, the “Synergy with Polymyxin B (Polypeptides)” value ([5]; P. aeruginosa ATCC 27853) was “Synergy”, the “Synergy with Polymyxin E (Polypeptides)” value ([5]; P. aeruginosa ATCC 27853) was “Synergy” and the “Synergy with Norfioxacin” value ([5]; VRE ATCC 51299) was “Synergy”. For the same compound, the “Synergy with Tetracycline (Tetracyclines)” value ([5]; VRE ATCC 51299) was “Synergy”, the “Synergy with Vancomycin (Glycopeptides)” value ([5]; VRE ATCC 51299) was “Synergy” and the “Synergy with β-lactama (Oxacillin column; cell says dicloxicillin)” value ([5]; VRE ATCC 51299, dicloxicillin) was “Synergy”. The IC50 [6] was 36.8 µM, the “toxicity to HeLa versus normal WI38 cells” value ([6]; comparison of TABLE 2 values) was “killed cancerous HeLa cells at concentrations that were not toxic to normal WI38 cells” and the MIC [7] was 32 to 64 µM (≈ 11.3 to 22.7 µg/mL). The “Log Reduction” value ([8]; compound 2 μM, Dicloxacillin (10 μg/mL)) was 5, the “Log Reduction” value ([8]; compound 2 μM, Norfloxacin (5 μg/mL)) was 5-6 and the IC50 [9] was 54.8 µM. The MIC [10] was over 100 µM.

Reference: patent publication US9834514B2, “Antibiotic sensitivity-restoring and photosensitive agents” (New Mexico Tech Research Foundation, priority 2015, dated 2017)
